Measured values published in patent publication US8163909B2, “Substituted hydroxyethyl amine compounds as beta-secretase modulators and methods of use” (Amgen Inc., priority 2007, dated 2012).
Read-outs that look alike come from different tables or passages of the source.

Assays:
[1] = biological target: Beta Secretase enzyme (BACE) (Homo sapiens, UniProt P56817); test: In vitro enzymatic BACE FRET (fluorescence resonance energy transfer) assay; assay type: biochemical;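 also: fluorescence read after 1 h with 50 nM quenched peptide substrate spanning the BACE cleavage site, in pH 4.2 acetate buffer containing 10% DMSO and nonionic detergent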
Sequence of Beta Secretase enzyme (BACE) (P56817 46-501): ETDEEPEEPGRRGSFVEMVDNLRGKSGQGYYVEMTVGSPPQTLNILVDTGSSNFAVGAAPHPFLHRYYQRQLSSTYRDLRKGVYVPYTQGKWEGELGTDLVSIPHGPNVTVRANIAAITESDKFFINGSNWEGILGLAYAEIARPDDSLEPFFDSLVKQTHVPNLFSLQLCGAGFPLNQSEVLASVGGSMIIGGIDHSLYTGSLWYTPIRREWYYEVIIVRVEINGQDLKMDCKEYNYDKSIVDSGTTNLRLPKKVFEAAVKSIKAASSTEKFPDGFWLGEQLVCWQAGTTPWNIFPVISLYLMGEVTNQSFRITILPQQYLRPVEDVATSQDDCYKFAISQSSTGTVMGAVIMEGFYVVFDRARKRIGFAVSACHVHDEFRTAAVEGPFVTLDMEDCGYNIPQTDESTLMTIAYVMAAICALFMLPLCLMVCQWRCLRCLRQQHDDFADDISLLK

[2] = tested on: Aβ40 in conditioned medium of cells stably expressing Amyloid Precursor Protein (APP); test: In vitro BACE cell-based assay (Aβ40 in conditioned medium, sandwich ELISA); settings: Homo sapiens;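 also: compounds added as a dilution series, secreted peptide quantified by europium time-resolved fluorescence readout, potency fitted from percent of control versus compound concentration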
[3] = biological target: CYP3A4 (CYP3A) (Homo sapiens, UniProt P08684); test: in vitro; settings: microsomes, pH 7.4;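 also: inhibition of CYP3A-mediated 1-hydroxymidazolam formation after 10 min incubation with NADPH, quantified by HPLC MS relative to metabolite produced without test compound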
Sequence of CYP3A4 (CYP3A) (P08684 2-503): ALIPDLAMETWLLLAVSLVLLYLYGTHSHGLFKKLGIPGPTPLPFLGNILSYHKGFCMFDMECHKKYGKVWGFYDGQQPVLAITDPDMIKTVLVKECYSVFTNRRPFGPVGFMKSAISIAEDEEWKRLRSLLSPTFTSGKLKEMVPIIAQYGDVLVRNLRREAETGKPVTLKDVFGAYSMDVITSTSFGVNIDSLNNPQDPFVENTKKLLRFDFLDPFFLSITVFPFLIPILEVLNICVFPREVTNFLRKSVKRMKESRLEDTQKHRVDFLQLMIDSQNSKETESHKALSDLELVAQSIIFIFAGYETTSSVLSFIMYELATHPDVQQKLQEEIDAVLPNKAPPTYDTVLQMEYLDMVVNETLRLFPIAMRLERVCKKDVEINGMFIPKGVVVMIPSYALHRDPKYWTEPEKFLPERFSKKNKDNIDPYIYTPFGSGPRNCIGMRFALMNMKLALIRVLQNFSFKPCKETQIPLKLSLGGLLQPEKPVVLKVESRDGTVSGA

[4] = Microsomal stability assay, rat liver microsomes;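 also: rat liver microsomes (0.25 mg/mL) with about 1 µM compound plus 1 mM NADPH, pH 7.4, 37 °C for 30 min, parent left measured by LC-MS/MS against 0 min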
[5] = Microsomal stability assay, human liver microsomes;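 also: pooled human liver microsomes at 0.25 mg/mL with 1 µM compound and NADPH at 37 °C, pH 7.4, for 30 min, unchanged parent quantified by LC-MS/MS against the 0 min sample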
[6] = biological target: CYP2D6 (Homo sapiens, UniProt P10635); test: CYP2D6 inhibition assay (bufuralol, pooled human liver microsomes)
Sequence of CYP2D6 (P10635 whole entry): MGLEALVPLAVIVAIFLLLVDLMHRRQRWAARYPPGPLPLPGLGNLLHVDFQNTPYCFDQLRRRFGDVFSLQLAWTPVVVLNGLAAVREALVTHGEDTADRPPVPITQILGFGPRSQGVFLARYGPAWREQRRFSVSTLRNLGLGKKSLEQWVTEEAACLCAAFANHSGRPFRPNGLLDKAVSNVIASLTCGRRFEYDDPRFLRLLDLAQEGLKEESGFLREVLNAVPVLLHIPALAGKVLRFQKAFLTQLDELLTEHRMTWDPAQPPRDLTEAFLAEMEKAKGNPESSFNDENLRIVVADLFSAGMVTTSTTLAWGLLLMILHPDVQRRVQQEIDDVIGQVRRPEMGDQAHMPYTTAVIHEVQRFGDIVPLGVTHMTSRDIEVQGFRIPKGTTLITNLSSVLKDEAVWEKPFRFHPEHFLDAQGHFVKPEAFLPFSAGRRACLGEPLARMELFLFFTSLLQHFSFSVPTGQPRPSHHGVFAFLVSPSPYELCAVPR

[7] = read-out: BACE1 FRET assay (IC50)
[8] = HEK293, HEK cells, read-out: HEK cell assay (IC50)
[9] = BACE enzyme assay, IC50's in uM, read-out: BACE1 FRET assay
[10] = HEK293, HEK cell-based assay, IC50's in uM, read-out: HEK cell assay
[11] = 2D6 IC50 (uM), CYP enzyme inhibition
[12] = HEK293, cell-based assay, HEK cells, IC50's in uM, read-out: HEK cell assay
[13] = 2D6 IC50, CYP enzyme inhibition
[14] = BACE enzyme assay, read-out: BACE1 FRET assay
[15] = HEK293, HEK cells, read-out: HEK cell assay
[16] = BACE enzyme assay IC50, read-out: BACE1 FRET assay
[17] = HEK293, HEK cell-based assay IC50, read-out: HEK cell assay
[18] = 2D6 IC50 (uM), CYP2D6 inhibition

Structure (SMILES)	IC50 [3] [nM]	RLM ([4]; rat liver microsomes) [µL/min/mg]	HLM ([5]; human liver microsomes) [µL/min/mg]	IC50 [1, 9] [µM]	RLM ([4]; rat liver microsomal data) [µL/min/mg]	HLM ([5]; human liver microsomal data) [µL/min/mg]	IC50 [6, 11] [µM]	other results
CO[C@H](C)C(=O)N[C@@H](Cc1ccc2c(c1)OCO2)[C@H](O)CN[C@H]1CC2(CCC2)Oc2ncc([C@H]3CC3(C)C)cc21 [compound 580]	100	186	42	–	–	–	–	IC50 [1, 7]: 0.357 µM; IC50 [2, 8]: 0.776 µM; IC50 ([6]; 2D6 IC50, CYP2D6 inhibition): 4.4 µM
CC(C)(C)Cc1cnc2c(c1)[C@@H](NC[C@@H](O)[C@H](Cc1ccc3c(c1)OCO3)NC(=O)C1CCS(=O)(=O)C1)CC1(CCC1)O2 (stereo partly drawn) [compound 779]	100	–	–	0.057	66	36	3.9	IC50 [2, 10]: 0.075 µM
C#Cc1cc(F)cc(C[C@H](NC(=O)COC)[C@H](O)CN[C@H]2CC3(CCC3)Oc3ncc(CC(C)C)cc32)c1 [Example 856, N-((1S,2R)-1-(3-ethynyl-5-fluorobenzyl)-2-hydroxy-3-(((4′S)-6′-(2-methylpropyl)-3′,4′-dihydrospiro[cyclobutane-1,2′-pyrano[2,3-b]pyridin]-4′-yl)amino)propyl)-2-methoxyacetamide]	150	–	–	0.002	78	63	–	IC50 [2, 12]: 0.009 µM; IC50 [6, 13]: 1 µM
CO[C@H](C)C(=O)N[C@@H](Cc1cc(F)cc(-c2nccs2)c1)[C@H](O)CN[C@H]1CC2(CCC2)Oc2ncc(C#CC3CC3)cc21 [compound 880]	300	–	–	21	107	71	–	IC50 [2, 12]: 0.063 µM; IC50 [6, 13]: 0.3 µM
CO[C@H](C)C(=O)N[C@@H](Cc1cccc(F)c1)[C@H](O)CN[C@H]1CC2(CCC2)Oc2c(Br)cc(CC(C)C)cc21 [compound 515]	1300	–	–	–	399	775	9.4	IC50 [1, 14]: 0.003 µM; IC50 [2, 15]: 0.125 µM
COCC(=O)N[C@@H](Cc1ccc(-c2nccs2)cc1)[C@H](O)CN[C@H]1CC2(CCC2)Oc2ncc(CC(C)C)cc21 [Example 434, N-((2S,3R)-3-hydroxy-4-((S)-6-isobutyl-2,2-spirocyclobutyl-3,4-dihydro-2H-pyrano[2,3-b]pyridin-4-ylamino)-1-(4-(thiazol-2-yl)phenyl)butan-2-yl)-2-methoxyacetamide]	200	–	–	0.075	60	80	1.3	IC50 [2, 10]: 0.273 µM
CC(=O)N[C@@H](Cc1cccc(-c2ncc[nH]2)c1)[C@H](O)CN[C@H]1CC2(CCC2)Oc2ncc(CC(C)(C)C)cc21 [Example 429, N-((2S,3R)-1-(3-(1H-imidazol-2-yl)phenyl)-4-((S)-2,2-spirocyclobutyl-6-neopentyl-3,4-dihydro-2H-pyrano[2,3-b]pyridin-4-ylamino)-3-hydroxybutan-2-yl)acetamide]	1300	37	88	–	–	–	–	IC50 [1, 16]: 3.59 µM; IC50 [2, 17]: 0.6 µM; IC50 [6, 18]: 0.5 µM
COCC(=O)N[C@@H](Cc1ccc2c(c1)OCO2)[C@H](O)CN[C@H]1CC2(CCC2)Oc2ncc(CC(F)(F)F)cc21 [compound 518]	300	–	–	–	82	26	2.7	IC50 [1, 14]: 0.131 µM; IC50 [2, 15]: 0.34 µM
COCC(=O)N[C@@H](Cc1cc(F)cc(F)c1)[C@H](O)CN[C@H]1CC(C)(C)Oc2c1cc(CC(C)C)c1c2OCO1 [compound 748]	100	179	190	–	–	–	–	IC50 [1, 16]: 0.013 µM; IC50 [2, 17]: 0.126 µM; IC50 [6, 18]: 8.2 µM
CO[C@H](C)C(=O)N[C@@H](Cc1cc(F)cc(F)c1)[C@H](O)CN[C@H]1CC2(CCC2)Oc2c(-c3ccncc3)cc(Cl)cc21 [compound 561]	100	–	–	–	426	113	0.4	IC50 [1, 14]: 0.092 µM; IC50 [2, 15]: 0.262 µM
COCC(=O)N[C@@H](Cc1ccc(F)cc1)[C@H](O)CN[C@H]1CC(C)(C)Oc2c1cc(Br)c1c2OCO1 [compound 745]	500	177	179	–	–	–	–	IC50 [1, 16]: 5.73 µM; IC50 [2, 17]: 0.229 µM; IC50 [6, 18]: 3.1 µM
COCC(=O)N[C@@H](Cc1cccc(-c2ncc(C)s2)c1)[C@H](O)CN[C@H]1CC2(CCC2)Oc2ncc(CC(C)(C)C)cc21 [compound 759, N-((1S,2R)-3-(((4′S)-6′-(2,2-dimethylpropyl)-3′,4′-dihydrospiro[cyclobutane-1,2′-pyrano[2,3-b]pyridin]-4′-yl)amino)-2-hydroxy-1-(3-(5-methyl-1,3-thiazol-2-yl)benzyl)propyl)-2-methoxyacetamide]	300	–	–	0.021	399	436	1.5	IC50 [2, 10]: 0.071 µM
CO[C@H](C)C(=O)N[C@@H](Cc1cc(F)cc(-c2nccs2)c1)[C@H](O)CN[C@H]1CC2(CCC2)Oc2cnc(CC(C)(C)F)cc21 [compound 721, (2R)-N-((1S,2R)-3-(((4′S)-6′-(2-fluoro-2-methylpropyl)-3′,4′-dihydrospiro[cyclobutane-1,2′-pyrano[2,3-c]pyridin]-4′-yl)amino)-1-(3-fluoro-5-(1,3-thiazol-2-yl)benzyl)-2-hydroxypropyl)-2-methoxypropanamide]	300	152	111	–	–	–	–	IC50 [1, 16]: 0.049 µM; IC50 [2, 17]: 0.118 µM; IC50 [6, 18]: 0.5 µM
CC(C)(C)Cc1cnc2c(c1)[C@@H](NC[C@@H](O)[C@H](Cc1ccc(F)cc1)NC(=O)[C@@H]1CN(Cc3cscn3)CCO1)CC1(CCC1)O2 [compound 786]	300	–	–	0.047	129	169	7.9	IC50 [2, 10]: 0.029 µM
CO[C@H](C)C(=O)N[C@@H](Cc1cc(F)cc(-c2nccs2)c1)[C@H](O)CN[C@H]1CC2(CCC2)Oc2ncc(CC(C)C)cc21 [Example 761]	100	–	–	1.62	74	85	0.7	IC50 [2, 10]: 0.375 µM
COCC(=O)N[C@@H](Cc1cc(F)cc(F)c1)[C@H](O)CN[C@H]1CC2(CCC2)Oc2c(-c3ccncc3)cc(Cl)cc21 [compound 560]	200	–	–	–	829	209	0.4	IC50 [1, 14]: 0.049 µM; IC50 [2, 15]: 0.058 µM
CO[C@H](C)C(=O)N[C@@H](Cc1ccc2c(c1)OCO2)[C@H](O)CN[C@H]1CC2(CCC2)Oc2cnc(CC(C)C)cc21 [compound 666]	≤ 30	228	140	–	–	–	–	IC50 [1, 7]: 0.124 µM; IC50 [2, 8]: 0.175 µM; IC50 ([6]; 2D6 IC50, CYP2D6 inhibition): 2.4 µM
CC(=O)N[C@@H](Cc1cccc(F)c1)[C@H](O)CN[C@H]1CC2(CCC2)Oc2c1cc(CC(C)(C)C)nc2-c1ccncc1 [compound 532]	200	–	–	–	91	40	2.6	IC50 [1, 14]: 0.012 µM; IC50 [2, 15]: 0.022 µM
C#Cc1cc2c(c(-n3ccnc3)c1)OC1(CCC1)C[C@@H]2NC[C@@H](O)[C@H](Cc1cc(F)cc(F)c1)NC(=O)COC [compound 689]	≤ 30	44.5	18.5	–	–	–	–	IC50 [1, 16]: 0.038 µM; IC50 [2, 17]: 0.027 µM; IC50 [6, 18]: 0.2 µM
COCC(=O)N[C@@H](Cc1cccc(F)c1)[C@H](O)CN[C@H]1CC2(CCC2)Oc2ccc(C[C@H](C)F)cc21 [compound 512]	5700	–	–	–	829	614	0.5	IC50 [1, 14]: 0.028 µM; IC50 [2, 15]: 0.061 µM
CO[C@H](C)C(=O)N[C@@H](Cc1ccncc1)[C@H](O)CN[C@H]1CC2(CCC2)Oc2ncc(C(F)(F)F)cc21 [compound 653]	600	114	178	–	–	–	–	IC50 [1, 7]: 6.74 µM; IC50 [2, 8]: > 10 µM; IC50 ([6]; 2D6 IC50, CYP2D6 inhibition): 5.8 µM
C[C@@H](O)C(=O)N[C@@H](Cc1ccc(F)cc1)[C@H](O)CN[C@H]1CC2(CCC2)Oc2ncc(CC(C)(C)C)cc21 [compound 442]	750	–	–	–	150.333	117.333	–	IC50 ([1]; Table 2, read-out: BACE1 FRET assay): 0.013 µM; IC50 ([2]; HEK293, Table 2, HEK cells, read-out: HEK cell assay): 0.016 µM; IC50 [6, 13]: 6.75 µM
C#Cc1cnc2c(c1)[C@@H](NC[C@@H](O)[C@H](Cc1cc(F)cc(-c3nccs3)c1)NC(=O)[C@@H](C)OC)CC1(CCC1)O2 [compound 784]	≤ 30	–	–	0.158	64	51	1	IC50 [2, 10]: 0.864 µM
CC(C)(C)Cc1cnc2c(c1)[C@@H](NC[C@@H](O)[C@H](Cc1ccc(F)cc1)NC(=O)[C@@H]1CN(Cc3nccs3)CCO1)CC1(CCC1)O2 [compound 769]	400	–	–	0.01	333	706	5.2	IC50 [2, 10]: 0.013 µM
